Results on 19 compounds are retold here after patent US20260070917A1, “CYCLIN DEPENDENT KINASE DEGRADERS AND METHODS OF USE THEREOF” (Differentiated Therapeutics Inc, priority 2023, published 2026).

Type in all cases: cell-based
In one experiment the target is T1, CCNE1 (Homo sapiens, UniProt P24864).
T1 construct: host or cells: HEK293-CCNE1-Hibit
Nature of the experiment: HiBit Assay Protocol for CCNE1 (HIBIT protein quantification, degradation). As to conditions: HEK293-CCNE1-Hibit cells, compound treatment for 6 hours. Put shortly:
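Degradation readout: lytic Nano-Glo HiBiT luminescence after 6 h exposure of HEK293-CCNE1-HiBiT cells to 10-point, 3-fold serial dilutions. Signal was scaled between medium-only and DMSO-treated wells, and DC50 came from curve fits.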

In a further experiment the target is T2, CDK2 (Homo sapiens, UniProt P24941).
T2 construct: host or cells: HEK293-CDK2-Hibit
Description: HiBit Assay Protocol for CDK2 (HIBIT protein quantification, degradation). As to conditions: HEK293-CDK2-Hibit cells, compound treatment for 6 hours; for DC50: ABS DC50. Put shortly:
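DC50 comes from a fitted curve of remaining CDK2-HiBiT luminescence, referenced to DMSO-treated cells and medium-only wells. HEK293-CDK2-HiBiT cells, plated the previous night, received compounds in a 10-point, 3-fold series for 6 h before lysis with LgBiT-containing Nano-Glo HiBiT reagent.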

A further experiment concerns the target T3, CDK9 (Homo sapiens, UniProt P50750).
T3 construct: host or cells: HEK293-CDK9-Hibit
Nature of the experiment: HiBit Assay Protocol for CDK9 (HIBIT protein quantification, degradation). As to conditions: HEK293-CDK9-Hibit cells, compound treatment for 6 hours; for Dmax: read-out: CDK9 HIBIT Protein Quantification Maximum. Put shortly: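 Degradation read-out: luminescence after lytic HiBiT/LgBiT detection in HEK293-CDK9-HiBiT cells exposed 6 h to 10-point, 3-fold compound dilutions. Signal scaled between 0.1% DMSO-treated cells and medium alone; DC50 fitted from the curve.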

Read-outs that look alike come from different tables or passages of the source.

T1 sequence (P24864 whole entry): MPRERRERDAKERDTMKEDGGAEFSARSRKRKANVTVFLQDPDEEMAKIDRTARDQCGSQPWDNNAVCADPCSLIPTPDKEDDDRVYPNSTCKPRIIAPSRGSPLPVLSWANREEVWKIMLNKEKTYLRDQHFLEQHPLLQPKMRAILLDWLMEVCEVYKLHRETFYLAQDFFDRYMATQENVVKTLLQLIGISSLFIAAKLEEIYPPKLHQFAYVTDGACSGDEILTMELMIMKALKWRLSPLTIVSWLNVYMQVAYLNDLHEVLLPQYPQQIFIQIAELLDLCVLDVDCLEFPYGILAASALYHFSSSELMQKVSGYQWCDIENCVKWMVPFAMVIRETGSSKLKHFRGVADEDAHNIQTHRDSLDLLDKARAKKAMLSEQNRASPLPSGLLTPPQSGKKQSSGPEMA
T3 sequence (P50750 whole entry): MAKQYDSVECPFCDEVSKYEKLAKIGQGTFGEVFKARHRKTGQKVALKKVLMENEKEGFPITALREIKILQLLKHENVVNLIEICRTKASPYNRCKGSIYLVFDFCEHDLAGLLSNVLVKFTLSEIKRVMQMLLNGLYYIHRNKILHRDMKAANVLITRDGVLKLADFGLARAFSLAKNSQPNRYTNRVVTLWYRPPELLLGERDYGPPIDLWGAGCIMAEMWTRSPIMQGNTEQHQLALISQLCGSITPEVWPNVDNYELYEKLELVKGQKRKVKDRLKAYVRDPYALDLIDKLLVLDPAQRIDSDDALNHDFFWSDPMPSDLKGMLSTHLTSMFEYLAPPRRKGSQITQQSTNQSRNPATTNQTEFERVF

Regarding `CC1CCCC1N1C(=O)C2(CC2)c2cnc(NC3CCN(S(=O)(=O)C4CCN(CC5CCN(c6ccc7c(c6)n(C)c(=O)n7C6CCC(=O)NC6=O)CC5)C4)CC3)nc21` (stereo not shown) [Compound 140, 3-(3-Methyl-5-{4-[(3-{4-[7′-(2-methylcyclopentyl)-6′-oxospiro[cyclopropane-1,5′-pyrrolo[2,3-d]pyrimidin]-2′-ylamino]piperidin-1-ylsulfonyl}pyrrolidin-1-yl)methyl]piperidin-1-yl}-2-oxo-1,3-benzodiazol-1-yl)piperidine-2,6-dione], on CCNE1, the “CCNE1 HIBIT Protein Quantification Maximum” value is on record as 20%. For the same compound, on CDK2, the “CDK2 HIBIT Protein Quantification Maximum” value came out at 71% and half-maximal degradation (DC50) was put at 2.09 nM. In addition, the Dmax on CDK9 (6 h) was determined as 8%.

`O=C1CCC(N2Cc3cc(N4CCC(N5CC(Oc6cccc(S(=O)(=O)N7CCC(Nc8ncc9c(n8)N([C@@H]8CCC[C@@H](O)C8)C(=O)C98CC8)CC7)c6)C5)CC4)ccc3C2=O)C(=O)N1` (stereo partly drawn) [Compound 134, 3-[5-(4-{3-[3-(4-{7′-[(1R,3R)-3-Hydroxycyclohexyl]-6′-oxospiro[cyclopropane-1,5′-pyrrolo[2,3-d]pyrimidin]-2′-ylamino}piperidin-1-ylsulfonyl)phenoxy]azetidin-1-yl}piperidin-1-yl)-1-oxo-3H-isoindol-2-yl]piperidine-2,6-dione]: the “CCNE1 HIBIT Protein Quantification Maximum” value on CCNE1 came out at 18%. For the same compound, on CDK2, the “CDK2 HIBIT Protein Quantification Maximum” value was determined as 74% and the DC50 worked out at 4.22 nM. Further, the Dmax at CDK9 worked out at 31%.

As for `CC1CCCC1N1C(=O)C2(CC2)c2cnc(NC3CCN(S(=O)(=O)N4CC5(CCCCN5CC5CCN(c6cccc7c6n(C)c(=O)n7C6CCC(=O)NC6=O)CC5)C4)CC3)nc21` (stereo not shown) [Compound 142], the “CCNE1 HIBIT Protein Quantification Maximum” value on CCNE1 is given as 26%. For the same compound, at CDK2, the “CDK2 HIBIT Protein Quantification Maximum” value was 53% and it took 36.1 nM to reach half-maximal degradation (DC50). Moreover, the Dmax at CDK9 (6 h) was 5%.

As for `CC1CCCC1N1C(=O)C2(CC2)c2cnc(NC3CCN(S(=O)(=O)N4CC5(CCN(C(=O)CCc6ccc7c(c6)n(C)c(=O)n7C6CCC(=O)NC6=O)CC5)C4)CC3)nc21` (stereo not shown) [Compound 59], at CCNE1, the “CCNE1 HIBIT Protein Quantification Maximum” value was determined as 24%. In addition, on CDK2, the “CDK2 HIBIT Protein Quantification Maximum” value was 46%. Besides, the Dmax at CDK9 (6 h) was 17%.

For `CC1CCCC1N1C(=O)C2(CC2)c2cnc(NC3CCN(S(=O)(=O)N4CCC5(CCN(C(=O)CCCCCCCCCc6ccc7c(c6)n(C)c(=O)n7C6CCC(=O)NC6=O)C5)C4)CC3)nc21` (stereo not shown) [Compound 89], on CCNE1, the “CCNE1 HIBIT Protein Quantification Maximum” value was 25%. In addition, on CDK2, the “CDK2 HIBIT Protein Quantification Maximum” value is 50%. Further, the Dmax at CDK9 (6 h) was found to be 35%.

Regarding `CC1CCCC1N1C(=O)C2(CC2)c2cnc(NC3CCN(S(=O)(=O)N4CCCN(C(=O)CCCCc5ccc6c(c5)n(C)c(=O)n6C5CCC(=O)NC5=O)CC4)CC3)nc21` (stereo not shown) [Compound 113], at CCNE1, the “CCNE1 HIBIT Protein Quantification Maximum” value is recorded as 28%. Further, at CDK2, the “CDK2 HIBIT Protein Quantification Maximum” value was 21%. Also, the Dmax on CDK9 (6 h) came out at 6%.

As to `CC1CCCC1N1C(=O)C2(CC2)c2cnc(NC3CCN(S(=O)(=O)N4CC5(CN(CC6CCN(c7ccc8c(c7)n(C)c(=O)n8C7CCC(=O)NC7=O)CC6)C5)C4)CC3)nc21` (stereo not shown) [Compound 144], the “CCNE1 HIBIT Protein Quantification Maximum” value at CCNE1 is recorded as 39%. On CDK2, the “CDK2 HIBIT Protein Quantification Maximum” value stood at 75% and the DC50 came to 1.97 nM. The Dmax on CDK9 (6 h) is 49%.

As for `Cn1nc(N2CCC(=O)NC2=O)c2ccc(C3CCN(Cc4cccc(S(=O)(=O)N5CC[C@H](Nc6ncc7c(n6)N([C@@H]6CCC[C@@H](O)C6)C(=O)C76CC6)[C@@H](F)C5)c4)CC3)cc21` [Compound 157], on CCNE1, the “CCNE1 HIBIT Protein Quantification Maximum” value is listed as 14%. Besides, the “CDK2 HIBIT Protein Quantification Maximum” value at CDK2 came out at 18%. On CDK9 (6 h), the Dmax turned out to be 12%.

For the compound `CC1CCCC1N1C(=O)C2(CC2)c2cnc(NC3CCN(S(=O)(=O)N4CC5(CN(C(=O)CCCCc6cccc7c6n(C)c(=O)n7C6CCC(=O)NC6=O)C5)C4)CC3)nc21` (stereo not shown) [Compound 97], the “CCNE1 HIBIT Protein Quantification Maximum” value on CCNE1 was 14%. For the same compound, at CDK2, the “CDK2 HIBIT Protein Quantification Maximum” value is 41%. In addition, at CDK9 (6 h), the Dmax amounted to 46%.

For the compound `CC1CCCC1N1C(=O)C2(CC2)c2cnc(NC3CCN(S(=O)(=O)C4CCN(C(=O)CCCCCCCc5ccc6c(c5)n(C)c(=O)n6C5CCC(=O)NC5=O)C4)CC3)nc21` (stereo not shown) [Compound 84], at CCNE1, the “CCNE1 HIBIT Protein Quantification Maximum” value is 47%. In addition, at CDK2, the “CDK2 HIBIT Protein Quantification Maximum” value is given as 53% and it took 21 nM to reach half-maximal degradation (DC50). Also, at CDK9 (6 h), the Dmax is 30%.

As for `CC1CCCC1N1C(=O)C2(CC2)c2cnc(NC3CCN(S(=O)(=O)C4CCCN(C(=O)CCCCCc5ccc6c(c5)n(C)c(=O)n6C5CCC(=O)NC5=O)C4)CC3)nc21` (stereo not shown) [Compound 82], at CCNE1, the “CCNE1 HIBIT Protein Quantification Maximum” value is recorded as 43%. Moreover, the “CDK2 HIBIT Protein Quantification Maximum” value at CDK2 was 26%. The Dmax at CDK9 (6 h) stood at 11%.

For the compound `Cc1cc(CN2CCC(c3ccc4c(N5CCC(=O)NC5=O)nn(C)c4c3)CC2)cc(S(=O)(=O)N2CCC(Nc3ncc4c(n3)N([C@@H]3CCC[C@@H](O)C3)C(=O)C43CC3)CC2)c1` [Compound 167, 1-[6-(1-{[3-(4-{7′-[(1R,3R)-3-Hydroxycyclohexyl]-6′-oxospiro[cyclopropane-1,5′-pyrrolo[2,3-d]pyrimidin]-2′-ylamino}piperidin-1-ylsulfonyl)-5-methylphenyl]methyl}piperidin-4-yl)-1-methylindazol-3-yl]-1,3-diazinane-2,4-dione], the “CCNE1 HIBIT Protein Quantification Maximum” value at CCNE1 worked out at 32%. At CDK2, the “CDK2 HIBIT Protein Quantification Maximum” value is 70% and half-maximal degradation (DC50) was put at 3.77 nM. Besides, the Dmax on CDK9 (6 h) was determined as 15%.

As to `C[C@@H](c1cccc(S(=O)(=O)N2CC[C@H](Nc3ncc4c(n3)N([C@@H]3CCC[C@@H](O)C3)C(=O)C43CC3)[C@H](F)C2)c1)N1CCN(c2ccc3c(N4CCC(=O)NC4=O)nn(C)c3c2)[C@@H](C)C1` [Compound 206], the “CCNE1 HIBIT Protein Quantification Maximum” value on CCNE1 was found to be 43%. Moreover, at CDK2, the “CDK2 HIBIT Protein Quantification Maximum” value was 91% and the DC50 was determined as 10.9 nM. Also, on CDK9 (6 h), the Dmax was determined as 13%.

On to `CC1CCCC1N1C(=O)C2(CC2)c2cnc(NC3CCN(S(=O)(=O)N4CC5(CCCCN5C(=O)CCCCc5cccc6c5n(C)c(=O)n6C5CCC(=O)NC5=O)C4)CC3)nc21` (stereo not shown) [Compound 95], for which the “CCNE1 HIBIT Protein Quantification Maximum” value at CCNE1 is on record as 15%. Besides, at CDK2, the “CDK2 HIBIT Protein Quantification Maximum” value is reported as 65% and the DC50 worked out at 11 nM. Also, at CDK9 (6 h), the Dmax is 7%.

For `CC1CCCC1N1C(=O)C2(CC2)c2cnc(NC3CCN(S(=O)(=O)N4CC5(CCCN(C6CCN(c7cccc8c7n(C)c(=O)n8C7CCC(=O)NC7=O)CC6)C5)C4)CC3)nc21` (stereo not shown) [Compound 139], the “CCNE1 HIBIT Protein Quantification Maximum” value on CCNE1 is given as 50%. On CDK2, the “CDK2 HIBIT Protein Quantification Maximum” value amounted to 65% and the DC50 worked out at 3.23 nM. In addition, at CDK9 (6 h), the Dmax was determined as 11%.

In the case of `CC(c1cc(S(=O)(=O)N2CC[C@H](Nc3ncc4c(n3)N([C@@H]3CCC[C@@H](O)C3)C(=O)C43CC3)[C@H](F)C2)ccc1F)N1CCC(c2ccc3c(N4CCC(=O)NC4=O)nn(C)c3c2)CC1` (single isomer, unassigned) [Compound 201, 1-(6-{1-[(1R*)-1-{2-Fluoro-5-[(3R,4S)-3-fluoro-4-{7′-[(1R,3R)-3-hydroxycyclohexyl]-6′-oxospiro[cyclopropane-1,5′-pyrrolo[2,3-d]pyrimidin]-2′-ylamino}piperidin-1-ylsulfonyl]phenyl}ethyl]piperidin-4-yl}-1-methylindazol-3-yl)-1,3-diazinane-2,4-dione], at CCNE1, the “CCNE1 HIBIT Protein Quantification Maximum” value was 47%. At CDK2, the “CDK2 HIBIT Protein Quantification Maximum” value was 88% and the DC50 was 5.66 nM. Further, the “CDK9 HIBIT Protein Quantification Maximum” value on CDK9 is recorded as 23%.

As to `CC1CCCC1N1C(=O)C2(CC2)c2cnc(NC3CCN(S(=O)(=O)N4CCCN(C(=O)CCCc5cccc6c5n(C)c(=O)n6C5CCC(=O)NC5=O)CC4)CC3)nc21` (stereo not shown) [Compound 33], on CCNE1, the “CCNE1 HIBIT Protein Quantification Maximum” value amounted to 9%. Also, at CDK2, the “CDK2 HIBIT Protein Quantification Maximum” value came out at 42%. Moreover, the Dmax on CDK9 (6 h) worked out at 4%.

As to `CC1CCCC1N1C(=O)C2(CC2)c2cnc(NC3CCN(S(=O)(=O)N4CC(N(C)C(=O)CCCCCc5cccc6c5n(C)c(=O)n6C5CCC(=O)NC5=O)C4)CC3)nc21` (stereo not shown) [Compound 34], the “CCNE1 HIBIT Protein Quantification Maximum” value at CCNE1 is given as 44%. On CDK2, the “CDK2 HIBIT Protein Quantification Maximum” value stood at 72% and the DC50 is 6 nM. Also, the Dmax at CDK9 (6 h) came to 61%. Besides, the DC50 at CDK9 (ABS DC50) turned out to be 13.6 nM.

Take `O=C1CCC(N2Cc3cc(C4CN(Cc5cccc(S(=O)(=O)N6CCC(Nc7ncc8c(n7)N([C@@H]7CCC[C@@H](O)C7)C(=O)C87CC7)CC6)c5)C4)ccc3C2=O)C(=O)N1` (stereo partly shown) [Compound 123]: the “CCNE1 HIBIT Protein Quantification Maximum” value at CCNE1 came to 47%. On CDK2, the “CDK2 HIBIT Protein Quantification Maximum” value is recorded as 52% and the DC50 stood at 92 nM. Besides, the Dmax at CDK9 (6 h) came out at 8%.
